Test results from PubChem BioAssay (NCI).
“And” between values parts separate entries of the source, which are not always exact repeats. Equal entries are not always repeated.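 Cultured in 96-well plates, cells were exposed to test compound for 48 hours across five concentrations. The concentration for 50% growth inhibition is given as GI50. TGI denotes the concentration required for complete inhibition of growth.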

Legend:
Test in all cases: DTP human tumour cell line panel, 48 h
[1] = tested on: K-562 leukemia
[2] = tested on: SK-MEL-5 melanoma
[3] = tested on: SF-295 CNS
[4] = tested on: OVCAR-5 ovarian
[5] = tested on: OVCAR-3 ovarian
[6] = tested on: SN12C renal
[7] = tested on: A549 NSCLC
[8] = tested on: OVCAR-4 ovarian
[9] = tested on: HOP-92 NSCLC
[10] = tested on: CCRF-CEM leukemia

Structure (SMILES)	GI50 [1]	TGI [1] [µM]	GI50 [2]	TGI [2]	GI50 [3]	TGI [3]	GI50 [4]	TGI [4]	GI50 [5]	TGI [5] [µM]	GI50 [6]	TGI [6] [µM]	GI50 [7]	TGI [7]	GI50 [8] [µM]	TGI [8] [µM]	TGI [9]	TGI [10] [µM]	GI50 [9]	GI50 [10]
CCSc1nc(N=Cc2cccs2)c2cn[nH]c2n1	26.1 µM	> 100	7.35 µM	38.1 µM	19.1 µM	> 100 µM	14.2 µM	50.9 µM	10.4 µM	53.9	61.9 µM	> 100	29.2 µM	> 100 µM	17.8	67.4	–	–	–	–
CCOC(CN=c1nc(N(C)C)ss1)OCC	–	11.8	–	> 100 µM	–	43.8 µM	–	44.1 µM	–	> 46.4	–	36.8	–	> 100 µM	–	33.1	36 µM	4.33	–	–
ON=C1CCC(c2ccccc2)CC1 (stereo not drawn)	–	> 100	–	> 100 µM	–	> 100 µM	–	> 100 µM	–	> 100	–	> 100	–	> 100 µM	–	> 100	> 100 µM	> 100	–	–
S=C(N/N=C/c1ccccn1)Nc1ccccn1	1.84 µM	> 100	0.874 µM	11.3 µM	–	–	3.86 µM	> 100 µM	0.327 µM	3.14	1.95 µM	> 100	2.34 µM	76.6 µM	0.477	62.2	6.23 µM	17.5	0.478 µM	0.358 µM
O=C(C(Br)Br)C(Br)C(Br)c1ccccc1 (stereo not drawn)	1.89 µM	5.37	10.6 µM	22.7 µM	–	–	6.6 µM	22.2 µM	2.72 µM	6.44	12.7 µM	33.2	20.4 µM	52.4 µM	–	–	19.8 µM	2.66	6.21 µM	0.536 µM
COc1nc(C)cc2c(=O)n(-c3ccccc3)n(CCCN3CCN(c4ccc(Cl)cc4)CC3)c(=O)c12	35 µM	> 50	16.9 µM	> 50 µM	29.2 µM	> 50 µM	> 50 µM	> 50 µM	24.6 µM	> 50	> 50 µM	> 50	21.2 µM	> 50 µM	17.6	> 50	41.6 µM	–	10 µM	–
O=C1c2ccccc2-c2c1c1ccccc1c(=O)n2CCNCCNCCn1c2c(c3ccccc3c1=O)C(=O)c1ccccc1-2	0.33 µM	> 100	0.957 µM	19.9 µM	0.0917 µM	10.8 µM	8.91 µM	34.5 µM	1.02 µM	8.98	0.13 µM	14.1	0.231 µM	> 38.2 µM	1.43	14.9	39.7 µM	–	17.4 µM	–
CNC(=O)c1cccc(-c2ccc3c(N4CCOC[C@@H]4C)nc(N4CCOC[C@@H]4C)nc3n2)c1	0.499 µM and 0.372 µM and 0.445 µM	> 100	0.109 µM and 0.17 µM and 0.176 µM	0.718 µM and 0.99 µM and 2.87 µM	0.0494 µM and 0.123 µM and 0.0336 µM	0.392 µM and 0.795 µM and 0.22 µM	0.0765 µM and 0.122 µM and 0.0739 µM	73.7 µM and > 4.52 µM	0.0597 µM and 0.222 µM and 0.139 µM	–	0.132 µM and 0.121 µM and 0.129 µM	> 100	0.124 µM and 0.242 µM and 0.142 µM	> 100 µM and > 10 µM and 11.5 µM	–	–	0.238 µM and 0.0728 µM	> 100	0.0187 µM and < 0.0133 µM	0.177 µM and 0.217 µM and 0.163 µM
